Data published in PubChem BioAssay (NCI).
Several values for one entry are separate records, joined by “and”; a condition that tells them apart may be missing. Equal values may be shown once.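 How tested: cells in 96-well plates exposed to compound for 48 hours at five concentrations. GI50 marks 50% less growth. TGI: concentration producing complete growth inhibition.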

Columns and labels:
Assay in all cases: growth of human tumour cells (NCI), 48 h
COLO 205 colon = tested on: COLO 205 colon
EKVX NSCLC = tested on: EKVX NSCLC
HL-60(TB) leukemia = tested on: HL-60(TB) leukemia
K-562 leukemia = tested on: K-562 leukemia
MDA-MB-435 = tested on: MDA-MB-435
OVCAR-4 ovarian = tested on: OVCAR-4 ovarian
RXF 393 renal = tested on: RXF 393 renal
SF-268 CNS = tested on: SF-268 CNS
SK-MEL-5 melanoma = tested on: SK-MEL-5 melanoma
UACC-257 melanoma = tested on: UACC-257 melanoma

Row | SMILES | TGI (COLO 205 colon) [µM] | GI50 (EKVX NSCLC) [µM] | TGI (EKVX NSCLC) | GI50 (HL-60(TB) leukemia) [µM] | TGI (HL-60(TB) leukemia) | GI50 (K-562 leukemia) [µM] | TGI (K-562 leukemia) [µM] | GI50 (MDA-MB-435) [µM] | TGI (OVCAR-4 ovarian) [µM] | TGI (RXF 393 renal) [µM] | GI50 (SF-268 CNS) [µM] | TGI (SK-MEL-5 melanoma) | GI50 (UACC-257 melanoma) [µM] | TGI (UACC-257 melanoma) [µM] | GI50 (COLO 205 colon) [µM] | TGI (MDA-MB-435) [µM] | GI50 (OVCAR-4 ovarian) [µM] | GI50 (RXF 393 renal) [µM] | TGI (SF-268 CNS) [µM] | GI50 (SK-MEL-5 melanoma) [µM]
1 | CCCCCCCCCC[C@@H](O)[C@@H]1CC[C@@H]([C@@H]2CC[C@@H]([C@@H](O)CCCCCCCCCC[C@H](O)CC3=CC(C)OC3=O)O2)O1 (stereo not given in full) | > 27.5 | 1.98 | 8.5 µM and > 80 µM | 1.54 | 2.96 µM and 5.84 µM | 2.94 | > 100 | 4.04 | > 51.4 | 9.8 | 3.29 | 3.11 µM and 2.6 µM | < 0.0462 | 7.89 | – | – | – | – | – | –
2 | Cc1c(Cl)c(=O)oc2cc(OC/C=C3\CCC(=O)O3)ccc12 | 30.1 | 29.9 | > 100 µM | – | – | 28.2 | 78.7 | 25.3 | 36.1 | > 100 | 18.8 | 52.2 µM | 27.2 | 99 | 12.9 | 96.3 | 15.2 | 23.5 | 64.3 | 21
3 | Cc1ccc(C(=O)c2sc3nc4c(cc3c2N)CCCC4)c(C)c1 | 5.07 | – | – | 0.263 | > 38.8 µM | 0.0934 | > 100 | 0.0258 | > 100 | 2.31 | 0.787 | > 37.9 µM | 0.539 | > 100 | 0.899 | 0.086 | 1.97 | 0.328 | > 100 | 0.32
4 | CNCC/C=C1\c2cc3c(cc2-c2c1c1cc(OC)c(OC)cc1c(=O)n2C)OCO3 | 41.2 | 2.36 | 18.3 µM | 0.239 | 2.57 µM | 0.196 | – | 0.836 | 44.8 | 14.9 | 0.992 | 2.89 µM | 3.13 | 12.4 | 1.73 | 15 | 6.72 | 1.51 | 25.1 | 0.548
5 | O=C(O)c1cc2ccccc2c2c3c(ccc12)OCO3 | 368 | – | – | 172 | 440 µM | 259 | > 1000 | 172 | 808 | 342 | 188 | 281 µM | 220 | 600 | 171 | 519 | 170 | 146 | 580 | 133
6 | NCCCCCNc1noc(Cc2c[nH]c3cc(Br)ccc23)n1 | 3.22 | – | – | 1.66 | 9.15 µM | 0.469 | 14.7 | 0.327 | 52.4 | 5.17 | 8.13 | 16.2 µM | 11.9 | 25.5 | 1.52 | 2.33 | 6.7 | 1.54 | 29.1 | 2.08
7 | C=C1C(=O)OC2C1C(OC(=O)/C(C)=C/C)CC(O)(CCl)C1C(O)C=C(C)C21O (stereo not given) | 18.5 | – | 29.9 µM | – | 18 µM | – | > 100 | – | 30 | 18.3 | – | 27.7 µM | – | 25.6 | – | > 62.1 | – | – | > 69.5 | –
